Assay results published in patent US20100190184A1, “SCREENING METHOD UTILIZING NOVEL SUBSTRATE C-RET FOR GAMMA-SECRETASE” (Eisai R & D Management Co., Ltd., priority 2007, published 2010).

Target: T1, γ-secretase (cleavage of rat c-Ret with HA tag in HEK293 cells) (Homo sapiens, UniProt P49768)
T1 construct: endogenous in cells; host or cells: 293/EBNA-1 cell strain (HEK293), transiently transfected with rat c-Ret-HA only
Test: Analysis of c-Ret processing in c-Ret-transfected 293/EBNA-1 cell strain (Western blotting with anti-HA antibody)
Assay type: cell-based
Set-up: dose or concentration left out as unconfirmed
Details: Compound E added to culture broth, one day; 293/EBNA-1 (HEK293) cells transfected with rat c-Ret-HA; versus untreated sample
Protocol: Whether or not c-Ret is a substrate for γ-secretase was evaluated using HEK293 cells expressing a gene encoding c-Ret with an HA tag added to its C-terminus, in the presence of a γ-secretase inhibitor. As the γ-secretase inhibitor, (2S)-2-{[(3,5-difluorophenyl)acetyl]amino}-N-[(3S)-1-methyl-2-oxo-5-phenyl-2,3-dihydro-1H-1,4-benzodiazepin-3-yl]propanamide (hereinafter, sometimes referred to as “Compound E”) (Alexis Biochemicals) was used. 293/EBNA-1 cell strain (Invitrogen) was cultured in 6-well dishes containing 10% FBS (Hyclone)/DMEM (Invitrogen) under 5% CO2 at 37° C., followed by transfection thereinto of the gene encoding rat c-Ret with an HA tag added to its C-terminus using Lipofectamine 2000 (Invitrogen). After one day culture under the same conditions, 50 mM Compound E (Alexis Biochemicals) was added to the culture broth. Cells were cultured for another day under the same conditions. Then, the transfected HEK293 cells were collected with PBS (Sigma) and sonicated with a sonicator (Taitec VP-5S) to disrupt cells. Then, the quantity of protein was determined with Protein Assay Kit (BioRad). Samples (2 μg each) were taken from proteins obtained from Compound E-added cells and Compound E-not added cells, respectively, and subjected to SDS-PAGE, followed by Western blotting with an anti-HA antibody (Roche) (final concentration: 0.2 μg/ml). […]

C[C@H](NC(=O)Cc1cc(F)cc(F)c1)C(=O)N[C@H]1N=C(c2ccccc2)c2ccccc2N(C)C1=O [Compound E, (2S)-2-{[(3,5-difluorophenyl)acetyl]amino}-N-[(3S)-1-methyl-2-oxo-5-phenyl-2,3-dihydro-1H-1,4-benzodiazepin-3-yl]propanamide]
effect on cleavage of c-Ret by γ-secretase (c-Ret C terminal fragment band, Western blot): a band around 50 kDa (CTF) was accumulated specifically as a c-Ret undegraded product
